Assay [1] deals with T1, Dual specificity mitogen-activated protein kinase kinase 5 (Homo sapiens) (UniProt Q13163).
T1 sequence (whole entry): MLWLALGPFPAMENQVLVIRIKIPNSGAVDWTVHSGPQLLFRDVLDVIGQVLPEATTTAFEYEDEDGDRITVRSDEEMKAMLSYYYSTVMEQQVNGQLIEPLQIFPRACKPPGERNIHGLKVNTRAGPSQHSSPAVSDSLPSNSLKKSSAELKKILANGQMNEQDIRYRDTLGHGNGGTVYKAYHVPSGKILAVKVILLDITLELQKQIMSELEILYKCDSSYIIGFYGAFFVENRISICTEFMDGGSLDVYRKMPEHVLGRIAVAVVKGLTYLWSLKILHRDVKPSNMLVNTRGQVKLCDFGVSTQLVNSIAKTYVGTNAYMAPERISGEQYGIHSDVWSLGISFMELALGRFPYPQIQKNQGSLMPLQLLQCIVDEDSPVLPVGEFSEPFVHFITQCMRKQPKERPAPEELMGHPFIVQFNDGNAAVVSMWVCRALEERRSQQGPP
The experiment in a line: Selectivity interaction (LanthaScreen Eu Kinase Binding Assay) EUB0001632a MAP2K5. The following applies: at 10 µM.

For assay [2], the target named is Serine/threonine-protein kinase 38 (Homo sapiens) (UniProt Q15208). The experiment in a line: Selectivity interaction (Ambit KINOMEscan and KiNATiv profiling in Jurkat cells) EUB0000090b STK38. The conditions noted are these: at 1 µM. It counts as cell-based.
In assay [3] the target is T2, Dual serine/threonine and tyrosine protein kinase (Homo sapiens) (UniProt Q6XUX3).
T2 sequence (whole entry): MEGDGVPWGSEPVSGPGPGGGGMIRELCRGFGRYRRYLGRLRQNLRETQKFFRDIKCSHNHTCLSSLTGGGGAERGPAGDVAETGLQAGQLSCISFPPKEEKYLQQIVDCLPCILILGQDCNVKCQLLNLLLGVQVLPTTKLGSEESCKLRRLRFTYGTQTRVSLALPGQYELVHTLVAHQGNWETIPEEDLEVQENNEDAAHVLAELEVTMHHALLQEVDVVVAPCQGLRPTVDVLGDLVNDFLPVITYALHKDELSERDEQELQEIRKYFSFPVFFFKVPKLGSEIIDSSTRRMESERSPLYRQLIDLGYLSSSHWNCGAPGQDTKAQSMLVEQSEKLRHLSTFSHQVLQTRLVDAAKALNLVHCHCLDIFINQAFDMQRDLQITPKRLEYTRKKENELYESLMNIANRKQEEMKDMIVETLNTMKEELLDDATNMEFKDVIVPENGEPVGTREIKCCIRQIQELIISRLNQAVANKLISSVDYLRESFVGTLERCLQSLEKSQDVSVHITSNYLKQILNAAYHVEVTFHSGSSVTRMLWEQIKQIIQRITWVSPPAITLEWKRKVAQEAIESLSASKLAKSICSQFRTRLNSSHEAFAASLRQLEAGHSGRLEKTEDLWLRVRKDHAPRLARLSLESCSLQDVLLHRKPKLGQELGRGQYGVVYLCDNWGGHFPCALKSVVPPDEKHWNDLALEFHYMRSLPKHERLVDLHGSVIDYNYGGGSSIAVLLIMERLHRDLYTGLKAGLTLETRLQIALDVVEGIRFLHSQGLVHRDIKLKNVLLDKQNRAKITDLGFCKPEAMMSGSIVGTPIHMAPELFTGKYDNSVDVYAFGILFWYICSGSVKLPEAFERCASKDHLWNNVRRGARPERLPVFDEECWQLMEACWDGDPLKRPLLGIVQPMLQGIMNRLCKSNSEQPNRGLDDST
The assay is described as follows: Selectivity interaction (Ambit KINOMEscan and KiNATiv profiling in Jurkat cells) EUB0000090b DSTYK. In kind it is cell-based. The following applies: at 1 µM.

Assay [4] concerns the target T3, Serine/threonine-protein kinase TAO2 (Homo sapiens) (UniProt Q9UL54).
T3 sequence (whole entry): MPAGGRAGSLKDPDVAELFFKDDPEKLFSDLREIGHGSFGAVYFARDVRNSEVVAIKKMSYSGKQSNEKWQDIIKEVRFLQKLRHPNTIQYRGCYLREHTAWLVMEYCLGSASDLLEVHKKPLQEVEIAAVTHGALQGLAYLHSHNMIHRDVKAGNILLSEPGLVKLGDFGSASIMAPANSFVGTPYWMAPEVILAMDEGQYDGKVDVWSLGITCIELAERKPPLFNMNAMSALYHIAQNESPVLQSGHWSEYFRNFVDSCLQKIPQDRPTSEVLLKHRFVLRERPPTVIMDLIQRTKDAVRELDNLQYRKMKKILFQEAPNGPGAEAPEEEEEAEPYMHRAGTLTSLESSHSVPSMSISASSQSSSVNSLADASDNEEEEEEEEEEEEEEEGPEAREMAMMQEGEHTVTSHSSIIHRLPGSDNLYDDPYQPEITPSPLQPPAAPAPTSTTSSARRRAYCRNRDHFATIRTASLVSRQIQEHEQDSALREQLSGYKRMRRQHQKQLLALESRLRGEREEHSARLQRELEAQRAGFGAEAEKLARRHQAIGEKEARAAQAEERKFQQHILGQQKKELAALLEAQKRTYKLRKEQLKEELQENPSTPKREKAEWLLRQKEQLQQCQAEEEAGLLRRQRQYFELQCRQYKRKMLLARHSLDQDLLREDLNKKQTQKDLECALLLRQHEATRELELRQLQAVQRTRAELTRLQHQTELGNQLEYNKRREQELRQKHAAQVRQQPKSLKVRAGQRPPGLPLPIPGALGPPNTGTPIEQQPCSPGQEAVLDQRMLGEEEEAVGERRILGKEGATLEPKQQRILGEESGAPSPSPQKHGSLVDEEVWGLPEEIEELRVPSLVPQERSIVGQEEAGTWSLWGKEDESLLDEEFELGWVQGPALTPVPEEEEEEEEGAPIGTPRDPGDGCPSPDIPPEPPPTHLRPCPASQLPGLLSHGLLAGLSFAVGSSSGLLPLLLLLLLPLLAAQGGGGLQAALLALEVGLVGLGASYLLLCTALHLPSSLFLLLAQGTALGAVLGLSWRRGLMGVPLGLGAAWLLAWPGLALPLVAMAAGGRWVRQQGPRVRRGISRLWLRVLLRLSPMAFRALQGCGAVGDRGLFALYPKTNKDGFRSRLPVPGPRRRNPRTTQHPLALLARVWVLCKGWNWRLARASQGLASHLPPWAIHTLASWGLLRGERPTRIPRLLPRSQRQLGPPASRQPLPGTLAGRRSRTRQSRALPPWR
The assay is described as follows: Selectivity interaction (KinomeScan (DiscoverX)) EUB0000229b TAOK2. The conditions noted are these: at 10 µM.

Assay [5] concerns the target Calcium/calmodulin-dependent protein kinase type II subunit gamma (Homo sapiens) (UniProt Q13555). The experiment in a line: Selectivity interaction (ActivX KiNativ screen (ex vivo kinase selectivity in human PBMCs)) EUB0001619a CAMK2G. In kind it is cell-based. The following applies: PBMC, at 1 µM.
Assay [6] addresses Ribosomal protein S6 kinase alpha-1 (Homo sapiens, UniProt Q15418). The assay is described as follows: Selectivity interaction (ActivX KiNativ screen (kinase selectivity in THP-1 cell lysates)) EUB0000639a RPS6KA1. In kind it is subcellular. The conditions noted are these: lysate, at 1 µM.
The target of assay [7] is Proto-oncogene tyrosine-protein kinase Src (Homo sapiens, UniProt P12931). The assay is described as follows: Selectivity interaction (Kinase panel (Invitrogen)) EUB0000639a SRC. The following applies: at 200 nM.
Proto-oncogene tyrosine-protein kinase Src, sequence (P12931 2-536 limits assumed): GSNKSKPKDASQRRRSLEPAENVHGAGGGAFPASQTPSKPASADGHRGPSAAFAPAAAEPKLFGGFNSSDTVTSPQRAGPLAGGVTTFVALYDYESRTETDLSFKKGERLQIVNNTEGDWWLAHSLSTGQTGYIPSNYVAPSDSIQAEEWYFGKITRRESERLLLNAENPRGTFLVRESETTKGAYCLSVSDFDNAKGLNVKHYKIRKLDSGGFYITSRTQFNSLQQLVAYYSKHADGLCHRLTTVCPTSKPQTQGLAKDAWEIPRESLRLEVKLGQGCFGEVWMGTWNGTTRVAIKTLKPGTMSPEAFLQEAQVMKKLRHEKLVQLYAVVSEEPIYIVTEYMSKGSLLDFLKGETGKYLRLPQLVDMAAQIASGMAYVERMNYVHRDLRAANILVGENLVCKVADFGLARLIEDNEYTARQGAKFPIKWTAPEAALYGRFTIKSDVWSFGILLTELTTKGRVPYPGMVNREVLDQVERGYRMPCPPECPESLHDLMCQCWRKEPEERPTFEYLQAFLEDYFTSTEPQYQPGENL

Calcium/calmodulin-dependent protein kinase type II subunit gamma (Homo sapiens), sequence (Q13555 whole entry): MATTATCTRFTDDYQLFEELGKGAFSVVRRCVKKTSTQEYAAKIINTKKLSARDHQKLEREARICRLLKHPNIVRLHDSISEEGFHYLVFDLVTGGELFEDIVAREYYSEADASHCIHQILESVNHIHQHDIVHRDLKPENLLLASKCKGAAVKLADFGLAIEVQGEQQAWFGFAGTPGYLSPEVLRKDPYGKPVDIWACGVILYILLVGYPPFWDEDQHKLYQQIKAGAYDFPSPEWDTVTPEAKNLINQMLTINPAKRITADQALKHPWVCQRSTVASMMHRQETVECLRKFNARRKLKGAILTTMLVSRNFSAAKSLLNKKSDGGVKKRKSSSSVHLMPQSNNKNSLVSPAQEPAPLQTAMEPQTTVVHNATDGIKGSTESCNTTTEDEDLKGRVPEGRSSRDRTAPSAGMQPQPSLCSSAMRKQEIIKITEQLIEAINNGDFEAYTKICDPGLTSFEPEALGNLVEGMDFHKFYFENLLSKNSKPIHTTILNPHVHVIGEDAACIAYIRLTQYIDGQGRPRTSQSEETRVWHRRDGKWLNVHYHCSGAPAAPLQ
Serine/threonine-protein kinase 38 (Homo sapiens), sequence (Q15208 2-465 limits assumed): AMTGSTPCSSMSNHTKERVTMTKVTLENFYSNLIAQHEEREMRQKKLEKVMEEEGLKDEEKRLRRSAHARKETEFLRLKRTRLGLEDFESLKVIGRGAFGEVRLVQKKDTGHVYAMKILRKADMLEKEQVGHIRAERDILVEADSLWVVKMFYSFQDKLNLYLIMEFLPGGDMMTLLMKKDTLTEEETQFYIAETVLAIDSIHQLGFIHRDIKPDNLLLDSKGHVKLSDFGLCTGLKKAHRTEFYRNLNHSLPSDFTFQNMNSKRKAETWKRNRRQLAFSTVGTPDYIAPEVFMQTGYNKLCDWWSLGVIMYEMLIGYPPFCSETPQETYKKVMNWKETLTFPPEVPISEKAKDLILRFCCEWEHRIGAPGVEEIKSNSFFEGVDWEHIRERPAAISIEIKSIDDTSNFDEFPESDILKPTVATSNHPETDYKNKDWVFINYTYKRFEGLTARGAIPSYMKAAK
Ribosomal protein S6 kinase alpha-1, sequence (Q15418 whole entry): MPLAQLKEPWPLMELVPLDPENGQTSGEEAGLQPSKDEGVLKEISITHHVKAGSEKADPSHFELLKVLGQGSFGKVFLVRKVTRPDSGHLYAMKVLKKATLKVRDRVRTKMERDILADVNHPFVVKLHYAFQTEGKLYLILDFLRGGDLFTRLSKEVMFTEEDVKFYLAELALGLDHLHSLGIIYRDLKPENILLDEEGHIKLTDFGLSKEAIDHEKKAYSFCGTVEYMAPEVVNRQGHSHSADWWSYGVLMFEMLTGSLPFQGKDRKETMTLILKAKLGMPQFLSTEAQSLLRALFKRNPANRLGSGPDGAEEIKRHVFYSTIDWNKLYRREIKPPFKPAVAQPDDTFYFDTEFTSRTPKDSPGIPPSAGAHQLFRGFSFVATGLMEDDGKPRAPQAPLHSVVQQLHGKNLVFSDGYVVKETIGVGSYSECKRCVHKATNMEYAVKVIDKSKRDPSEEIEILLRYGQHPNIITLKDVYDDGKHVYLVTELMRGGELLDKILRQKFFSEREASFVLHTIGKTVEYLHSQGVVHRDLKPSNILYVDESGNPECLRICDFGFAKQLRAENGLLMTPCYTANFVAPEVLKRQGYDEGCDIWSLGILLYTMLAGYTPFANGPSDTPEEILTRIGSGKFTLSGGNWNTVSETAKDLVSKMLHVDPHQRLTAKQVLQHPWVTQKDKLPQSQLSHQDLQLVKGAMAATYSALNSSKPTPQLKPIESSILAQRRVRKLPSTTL

In the case of `Cn1cc(-n2cnc3c(NCc4nc5cc(Cl)c(Cl)cc5[nH]4)nc(N4CCOCC4)nc32)cn1`, the % of inhibition in assay [1] came out at 0.023%. Regarding `CN(C)C/C=C/C(=O)Nc1ccc(C(=O)N2CCCC(Nc3ncc(Cl)c(-c4c[nH]c5ccccc45)n3)C2)cc1` (configuration not stated), the % of control in assay [2] and in assay [3] was 100% in each case. With `COc1cc(N(C)c2ccnc3ccc(C(F)(F)F)cc23)cc(OC)c1OC`, the % binding in assay [4] turned out to be 80%. For the molecule `N#Cc1cccc(-c2c[nH]c3ncnc(N4CCOCC4)c23)c1`, in assay [5], the % of inhibition came out at 10%.

As to `CC[C@@H]1[C@H](F)C(=O)N[C@@H]1COc1nccc2cc(C(N)=O)c(OC)cc12` [ZIMLOVISERTIB], the % of inhibition in assay [6] is -1%; in assay [7] it was 14.4%.

Values taken from ChEMBL document CHEMBL5465560, “Selectivity Literature for EUbOPEN Chemogenomic Library” (2024).
